One series concerns the target Glutamate carboxypeptidase 2 (Homo sapiens, UniProt Q04609). The series can be described thus: Inhibition of PSMA in human LNCaP cell extracts using NAAG as substrate by amplex red reagent based assay. The format is cell-free.
Conditions: not given; call rule not given here
Glutamate carboxypeptidase 2, sequence (Q04609 whole entry): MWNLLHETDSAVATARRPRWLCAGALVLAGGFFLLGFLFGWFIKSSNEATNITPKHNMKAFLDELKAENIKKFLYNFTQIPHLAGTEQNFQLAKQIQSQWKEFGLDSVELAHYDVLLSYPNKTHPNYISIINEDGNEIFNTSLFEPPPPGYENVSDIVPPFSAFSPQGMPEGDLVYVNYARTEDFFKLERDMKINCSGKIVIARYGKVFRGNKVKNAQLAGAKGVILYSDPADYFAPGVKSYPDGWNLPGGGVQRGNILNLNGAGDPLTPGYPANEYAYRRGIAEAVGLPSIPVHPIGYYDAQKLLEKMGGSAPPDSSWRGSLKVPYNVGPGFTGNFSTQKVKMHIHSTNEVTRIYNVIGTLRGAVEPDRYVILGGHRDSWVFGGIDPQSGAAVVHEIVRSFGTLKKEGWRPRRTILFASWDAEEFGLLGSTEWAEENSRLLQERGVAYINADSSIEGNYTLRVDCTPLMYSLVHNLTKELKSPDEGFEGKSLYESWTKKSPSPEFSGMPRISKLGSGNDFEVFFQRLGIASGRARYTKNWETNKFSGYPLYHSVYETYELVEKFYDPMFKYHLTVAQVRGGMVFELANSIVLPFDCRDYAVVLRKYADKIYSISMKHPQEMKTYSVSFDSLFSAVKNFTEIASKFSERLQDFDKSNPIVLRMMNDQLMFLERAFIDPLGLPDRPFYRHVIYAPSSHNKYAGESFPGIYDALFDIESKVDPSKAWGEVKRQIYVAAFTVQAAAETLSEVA
Consider `CCOc1ccc(CN(CCCC[C@H](NC(=O)N[C@@H](CCC(=O)O)C(=O)O)C(=O)O)C(=O)CCCCCNC(=O)CCC(=O)N[C@@H](Cc2ccccc2)C(=O)N[C@@H](Cc2ccccc2)C(=O)NCCCN=[N+]=[N-])cc1`, for which inhibition was half-maximal at 0.051 µM (IC50).

For `[N-]=[N+]=NCCCNC(=O)[C@H](Cc1ccccc1)NC(=O)[C@H](Cc1ccccc1)NC(=O)CCC(=O)NCCCCCC(=O)N(CCCC[C@H](NC(=O)N[C@@H](CCC(=O)O)C(=O)O)C(=O)O)Cc1ccccc1[N+](=O)[O-]`, the IC50 – broadly, the concentration that inhibits the measured activity by half – amounted to 0.016 µM. Same read-out and setting: next, `[N-]=[N+]=NCCCNC(=O)[C@H](Cc1ccccc1)NC(=O)[C@H](Cc1ccccc1)NC(=O)CCC(=O)NCCCCCC(=O)N(CCCC[C@H](NC(=O)N[C@@H](CCC(=O)O)C(=O)O)C(=O)O)Cc1cccc([N+](=O)[O-])c1`: 0.023 µM; `[N-]=[N+]=NCCCNC(=O)[C@H](Cc1ccc(O)c([N+](=O)[O-])c1)NC(=O)[C@H](Cc1ccccc1)NC(=O)CCC(=O)NCCCCCC(=O)N(CCCC[C@H](NC(=O)N[C@@H](CCC(=O)O)C(=O)O)C(=O)O)Cc1cccc(Cl)c1`: 0.0015 µM; `[N-]=[N+]=NCCCNC(=O)[C@H](Cc1ccccc1)NC(=O)[C@H](Cc1ccccc1)NC(=O)CCC(=O)NCCCCCC(=O)N(CCCC[C@H](NC(=O)N[C@@H](CCC(=O)O)C(=O)O)C(=O)O)Cc1ccc(O)cc1`: 0.024 µM. The same measure, in the same setting: the result for `[N-]=[N+]=NCCCNC(=O)[C@H](Cc1ccccc1)NC(=O)[C@H](Cc1ccccc1)NC(=O)CCC(=O)NCCCCCC(=O)N(CCCC[C@H](NC(=O)N[C@@H](CCC(=O)O)C(=O)O)C(=O)O)Cc1ccc(C(=O)O)cc1` reads 0.007 µM; that for `COc1ccc(CN(CCCC[C@H](NC(=O)N[C@@H](CCC(=O)O)C(=O)O)C(=O)O)C(=O)CCCCCNC(=O)CCC(=O)N[C@@H](Cc2ccccc2)C(=O)N[C@@H](Cc2ccccc2)C(=O)NCCCN=[N+]=[N-])c(OC)c1`, 0.023 µM. Still for that read-out and setting: the result for `[N-]=[N+]=NCCCNC(=O)[C@H](Cc1ccc(O)c([N+](=O)[O-])c1)NC(=O)[C@H](Cc1ccccc1)NC(=O)CCC(=O)NCCCCCC(=O)N(CCCC[C@H](NC(=O)N[C@@H](CCC(=O)O)C(=O)O)C(=O)O)Cc1ccc(C(=O)O)cc1` reads 0.0021 µM.

With `[N-]=[N+]=NCCCNC(=O)[C@H](Cc1ccc(O)cc1)NC(=O)[C@H](Cc1ccccc1)NC(=O)CCC(=O)NCCCCCC(=O)N(CCCC[C@H](NC(=O)N[C@@H](CCC(=O)O)C(=O)O)C(=O)O)Cc1ccc(C(=O)O)cc1`, the IC50 was determined as 0.019 µM. On the same count and under the same terms, the result for `[N-]=[N+]=NCCCNC(=O)[C@H](Cc1ccc(O)cc1)NC(=O)[C@H](Cc1ccccc1)NC(=O)CCC(=O)NCCCCCC(=O)N(CCCC[C@H](NC(=O)N[C@@H](CCC(=O)O)C(=O)O)C(=O)O)Cc1ccccc1[N+](=O)[O-]` reads 0.101 µM. Still for that read-out and setting: next, `COc1ccccc1CN(CCCC[C@H](NC(=O)N[C@@H](CCC(=O)O)C(=O)O)C(=O)O)C(=O)CCCCCNC(=O)CCC(=O)N[C@@H](Cc1ccccc1)C(=O)N[C@@H](Cc1ccccc1)C(=O)NCCCN=[N+]=[N-]`: 0.038 µM.

With `COc1ccc(CN(CCCC[C@H](NC(=O)N[C@@H](CCC(=O)O)C(=O)O)C(=O)O)C(=O)CCCCCNC(=O)CCC(=O)N[C@@H](Cc2ccccc2)C(=O)N[C@@H](Cc2ccccc2)C(=O)NCCCN=[N+]=[N-])cc1`, it took 0.112 µM to reach half-maximal inhibition (IC50). The compound `[N-]=[N+]=NCCCNC(=O)[C@H](Cc1ccccc1)NC(=O)[C@H](Cc1ccccc1)NC(=O)CCC(=O)NCCCCCC(=O)N(CCCC[C@H](NC(=O)N[C@@H](CCC(=O)O)C(=O)O)C(=O)O)Cc1ccc([N+](=O)[O-])cc1` gave an IC50 of 0.035 µM. This IC50 lies about 3.2-fold lower than the previous one. Same read-out and setting: the result for `COc1ccc(CN(CCCC[C@H](NC(=O)N[C@@H](CCC(=O)O)C(=O)O)C(=O)O)C(=O)CCCCCNC(=O)CCC(=O)N[C@@H](Cc2ccccc2)C(=O)N[C@@H](Cc2ccccc2)C(=O)NCCCN=[N+]=[N-])cc1OC` reads 0.088 µM.

Tested on in another series: not listed separately
The series can be described thus: Drug uptake in PSMA overexpressing human LNCaP cells at 4 to 40 nM by flow cytometry. The format is ADME, cell-based. The conditions noted are these: 0.04 µM, dose 4-40 nM. (A flow cytometer gives signals particle by particle.)
Regarding `CN1/C(=C/C=C/C=C/C2=[N+](CCCCCC(=O)NCc3cn(CCCNC(=O)[C@H](Cc4ccc(O)cc4)NC(=O)[C@H](Cc4ccccc4)NC(=O)CCC(=O)NCCCCCC(=O)N(CCCC[C@H](NC(=O)N[C@@H](CCC(=O)O)C(=O)O)C(=O)O)Cc4cccc(Cl)c4)nn3)c3ccc(S(=O)(=O)[O-])cc3C2(C)C)C(C)(C)c2cc(S(=O)(=O)O)ccc21`, the Drug uptake entry is listed as “Active”. Turning to `CN1/C(=C/C=C/C=C/C2=[N+](CCCCCC(=O)NCc3cn(CCCNC(=O)[C@H](Cc4ccccc4)NC(=O)[C@H](Cc4ccccc4)NC(=O)CCC(=O)NCCCCCC(=O)N(CCCC[C@H](NC(=O)N[C@@H](CCC(=O)O)C(=O)O)C(=O)O)Cc4ccc(C(=O)O)cc4)nn3)c3ccc(S(=O)(=O)[O-])cc3C2(C)C)C(C)(C)c2cc(S(=O)(=O)O)ccc21`, the Drug uptake result is listed as “Active”.

Turning to `CN1/C(=C/C=C/C=C/C2=[N+](CCCCCC(=O)NCc3cn(CCCNC(=O)[C@H](Cc4ccccc4)NC(=O)[C@H](Cc4ccccc4)NC(=O)CCC(=O)NCCCCCC(=O)N(CCCC[C@H](NC(=O)N[C@@H](CCC(=O)O)C(=O)O)C(=O)O)Cc4ccccc4[N+](=O)[O-])nn3)c3ccc(S(=O)(=O)[O-])cc3C2(C)C)C(C)(C)c2cc(S(=O)(=O)O)ccc21`, the Drug uptake result is on record as “Active”.

For the origin of these results see ChEMBL document CHEMBL5113431, “Synthesis and initial in vitro evaluation of PSMA-targeting ligands with a modified aromatic moiety at the lysine ε-nitrogen atom” (Bioorg Med Chem Lett, 2022).
